Test results from patent US10960084B2, “Modulation of fluid intake” (California Institute of Technology, priority 2018, dated 2021).
“Also recorded” adds a separate entry of the source.

What was measured:
MnPO^GLP1r neurons = assay: Drinking assays with chemogenetic inhibition of MnPO^GLP1r neurons by CNO; assay type: in vivo, mice; details: hM4Di in MnPO^GLP1r
Protocol: For water-restriction experiments, animals were provided with 1 mL of water daily. For food restriction experiments, animals were provided 0.5 pellets/20 g body weight daily. All assays were performed in a modified lickometer as described previously^[35] or Biodaq monitoring system (Research Diets Inc). For all photometry assays, animals were acclimatized for 10-15 min in the lickometer cage before stimuli were given.
Long-term access assays: Optogenetic Testing—For FIGS. 1L-N and FIGS. 7L-O, satiated mice were given ad libitum access to water for 20 min with photostimulation. Photostimulation was delivered for 1-s followed by 3-s intervals throughout the behavioral sessions. For FIGS. 2J-M and FIGS. 11C-E, mice were given access to water for 20 min after 24 h water-restriction, and photostimulation was delivered for the first 10 min. For feeding assays (FIGS. 2J-M), animals were single-housed in Biodaq cages after 24 h food-restriction, and chow intake was measured for 20 min with or without light stimulation. For acute inhibition experiments, mice were given access to 150 mM NaCl (FIGS. 5D-E, FIGS. 13E-F), water (FIGS. 1L-N, FIGS. 7L-O, FIGS. 13A-D, FIGS. 13G-H) for 20-30 min after 24 h water-restriction or 300 mM sucrose (FIGS. 1L-N, FIGS. 7L-O) after food-restriction. For all acute inhibition experiments, CNO was injected at 10 mg/kg body weight, 30 min prior to the start of the behavior session. For acute activation experiments, CNO was injected at 1 mg/kg body weight (FIGS. 12L-M), 30 min prior to the start of the behavior session. For FIG. 3A, FIGS. 9A-C, and FIG. 13L, water or saline access was provided for 30 min after 24 hours of water restriction. For FIGS. 4A-B, water or HydroGel (ClearH2O) in a cup was provided for 30 min after 24 and 36 hours of water restriction, respectively. The weight of the cup was measured before and after the behavior session. For FIGS. 4K-L, 0.5 pellets of chow was provided for 30 min after 24 h food-restriction. The entire session was recorded using a camera at 30 fps and ingestion episodes were manually annotated.

SFO^nNOS neurons = assay: Acute activation of SFO^nNOS neurons by hM3Dq-mCherry with CNO; assay type: in vivo, mice; details: hM3Dq-mCherry in SFO^nNOS; intraperitoneal CNO 1 mg/kg
Protocol: Long-term access assays: Optogenetic Testing—For FIGS. 1L-N and FIGS. 7L-O, satiated mice were given ad libitum access to water for 20 min with photostimulation. Photostimulation was delivered for 1-s followed by 3-s intervals throughout the behavioral sessions. For FIGS. 2J-M and FIGS. 11C-E, mice were given access to water for 20 min after 24 h water-restriction, and photostimulation was delivered for the first 10 min. For feeding assays (FIGS. 2J-M), animals were single-housed in Biodaq cages after 24 h food-restriction, and chow intake was measured for 20 min with or without light stimulation. […] The weight of the cup was measured before and after the behavior session. […] The entire session was recorded using a camera at 30 fps and ingestion episodes were manually annotated.
We measured bulk fluorescence signals using fiber photometry as previously described^[26]. […] The fluorescence signal was then focused onto a femtowatt photoreceiver (Newport, Model 2151). […] The licks from the lickometer were simultaneously recorded as real-time TTL signals to the RP2.1. Fluorescence changes were analyzed using custom MATLAB (MathWorks) code as described previously^[26]. […] The resultant ΔF/F was calculated as (raw 490 nm signal-fitted 405 nm signal)/(fitted 405 nm signal). For brief access tests, the Area Under Curve (ΣΔFduring) was quantified by integrating the fluorescence signals during the bout. […]

C[N+]1([O-])CCN(C2=Nc3cc(Cl)ccc3Nc3ccccc32)CC1 [CNO, clozapine-N-oxide] was tested, and the “water or saline intake under satiated conditions” value (MnPO^GLP1r neurons; satiated) was “did not elevate water or saline intake”, the “total water intake (30 min)” value (MnPO^GLP1r neurons; water-restricted animals) was “minor effect” and the “water consumption at the onset of drinking (first 1 min)” value (MnPO^GLP1r neurons; water-restricted animals) was “significantly increases water consumption at the onset of drinking”. The “total amount of isotonic saline intake” value (MnPO^GLP1r neurons; water-restricted, 30 min, CNO 10 mg/kg vs vehicle) was “strikingly increased; also recorded: causes overdrinking of isotonic saline”, the “duration of saline intake (time spent for drinking)” value (MnPO^GLP1r neurons; water-restricted, 30 min, CNO vs vehicle) was “strikingly increased” and the water drinking (SFO^nNOS neurons) was “induce water drinking”.
